Data: patent publication US4338330A, “Benzimidazole derivatives, their use, and compositions containing these derivatives” (Continental Pharma, priority 1979, dated 1982)
Where two headings read alike, the source gives them in different places.

Assays:
[1] = LD50 in mice, oral (Lichtfield and Wilcoxon method); format: in vivo
Protocol: LD50 were determined according to the Lichtfield and Wilcoxon method (J. Pharmacol. Exp. Ther. 96, 99, 1949) and expressed in mg/kg. The products were administered to mice orally.

[2] = Antihypertensive activity, oral, unanesthetized spontaneously hypertensive rats; format: in vivo
Protocol: […] Only rats having a systolic pressure of 180 to 220 mm Hg are used. Two rats are used by product. The treatments are administered without the knowledge of the person making the measure.
The antihypertensive effects were recorded according to a score followed by an index. The scoring system is as follows.
The index is calculated by multiplying the systolic pressure difference (cmHg) measured every 30 minutes after the treatment, by a coefficient of 1 to 6 corresponding to times of 30 to 180 minutes.

[3] = system: isolated guinea pig auricles; assay: Chronotrope effect of the substance on isolated auricles; conditions: 10^-6 M, 20 minutes, Tyrode, 29° C.
Protocol: The β-lytic effect was searched on the chronotropic response to noradrenaline of isolated guinea pig auricles. Auricles were incubated for 20 minutes in a Tyrode solution at 29° C. in the presence of the substance to be tested at the concentration of 10^-6 M. A positive (+) or negative (-) chronotrope effect of the substance was noted using the following scores: […]

[4] = system: chronotropic response to noradrenaline of isolated guinea pig auricles; assay: β-lytic effect on the chronotropic response to noradrenaline of isolated auricles
Protocol: The β-lytic effect was searched on the chronotropic response to noradrenaline of isolated guinea pig auricles. Auricles were incubated for 20 minutes in a Tyrode solution at 29° C. in the presence of the substance to be tested at the concentration of 10^-6 M. A positive (+) or negative (-) chronotrope effect of the substance was noted using the following scores:
Then, the chronotrope effect of cumulative increasing concentrations of noradrenaline was recorded. The pD2 (-log CE50) value was calculated. A score of β-lytic activity of the substance was given as follows:
If the score at concentration of 10^-6 M was 3 or 4, the effect of the substance was examined at concentration of 10^-7 M and a score was recorded according to the same procedure.

[5] = system: guinea pig ileum contractions induced by histamine; assay: Antispasmodic activity against ileum contractions induced by histamine
Protocol: (§1) The antispasmodic activity of the studied substances was examined against guinea pig ileum contractions induced by histamine and acetylcholine.
(§2) These experiences allow to make it obvious an antihistaminic, anticholinergic or musculotrope activity. The response to the contracting agent (sub-maximum concentration) is obtained every 5 minutes before and after injection of increasing concentrations of tested products (10^-7 M to 10^-4 M). The inhibition percentage under the influence of tested products is calculated and the theoretical concentration giving 50% of inhibition is graphically determined for each experience. These values are expressed in -log CI50 (M).

[6] = system: guinea pig ileum contractions induced by acetylcholine; assay: Antispasmodic activity against ileum contractions induced by acetylcholine
Protocol: as §1, §2

[7] = 60 mg/kg oral, spontaneously hypertensive rats
[8] = 60 mg/kg oral, systolic pressure difference (cmHg) every 30 min multiplied by time coefficient 1 to 6

| SMILES | Antihypertensive activity (score) [2, 7] | Chronotrope effect (score) [3] | β-lytic effect (score) ([4]; 10^-6 M) | β-lytic effect (score) ([4]; 10^-7 M) | Antispasmodic activity, Hist. (-log CI50 (M)) [5] | Antispasmodic activity, Ac. Chol. (-log CI50 (M)) [6] | also measured |
| --- | --- | --- | --- | --- | --- | --- | --- |
| CC(C)(C)NCC(O)COc1ccc(-c2nc3ccccc3[nH]2)cc1 (centres unmarked) [Compound 4, 2-[4-(3-t-butylamino-2-hydroxypropoxy)phenyl]benzimidazole] | ++++ (reduction>50 mm Hg) | 0 (if the frequency modification was comprised between +6 and -6) | 3 (if 6.00≥pD2 ≥5.51) | 1 (if 6.80≥pD2 ≥6.41) | 5.64 -log CI50 (M) | 5.72 -log CI50 (M) | LD50 ([1]; mouse, in vivo, po, read-out: LD50): 1420 mg/kg; Antihypertensive activity (index) [2, 8]: 192 |
| CC(C)NCC(O)COc1ccc(-c2nc3ccccc3[nH]2)cc1 (centres unmarked) [Compound 8, 2-[4-(3-isopropylamino-2-hydroxypropoxy)phenyl]benzimidazole] |  | 0 (if the frequency modification was comprised between +6 and -6) | 4 (if pD2 ≤5.50) |  | 4.65 -log CI50 (M) | 4.95 -log CI50 (M) | LD50 [1]: > 2248 mg/kg; Antihypertensive activity (index) ([2]; at 10 mg, oral): 66; Antihypertensive activity (score) ([2]; at 10 mg, oral): +++ (reduction of 30 to 50 mm Hg) |
| CC(C)NCC(O)COc1ccc(-c2nc3ccccc3[nH]2)cc1 (centres unmarked) [Compound 9, 2-[4-(3-isopropylamino-2-hydroxypropoxy)phenyl]benzimidazole] |  | 0 (if the frequency modification was comprised between +6 and -6) | 4 (if pD2 ≤5.50) |  | 4.75 -log CI50 (M) | 4.60 -log CI50 (M) | LD50 [1]: 2620 mg/kg; Antihypertensive activity (index) ([2]; at 10 mg, oral): 68; Antihypertensive activity (score) ([2]; at 10 mg, oral): +++ (reduction of 30 to 50 mm Hg) |
| CC(C)NCC(O)COc1ccc(-c2nc3ccccc3[nH]2)cc1 (centres unmarked) [Compound 10, 2-[4-(3-isopropylamino-2-hydroxypropoxy)phenyl]benzimidazole] |  | 0 (if the frequency modification was comprised between +6 and -6) | 4 (if pD2 ≤5.50) |  | 4.31 -log CI50 (M) | 4.95 -log CI50 (M) | LD50 [1]: 1960 mg/kg; Antihypertensive activity (index) ([2]; at 10 mg, oral): 61; Antihypertensive activity (score) ([2]; at 10 mg, oral): +++ (reduction of 30 to 50 mm Hg) |
| CC(C)NCC(O)COc1ccc(-c2nc3ccccc3[nH]2)cc1 (centres unmarked) [Compound 11, 2-[4-(3-isopropylamino-2-hydroxypropoxy)phenyl]benzimidazole (dihydrated glucuronate)] |  | 1 | 4 (if pD2 ≤5.50) |  | 4.52 -log CI50 (M) | 4.30 -log CI50 (M) | LD50 [1]: 1494 mg/kg; Antihypertensive activity (index) ([2]; at 10 mg, oral): 51; Antihypertensive activity (score) ([2]; at 10 mg, oral): +++ (reduction of 30 to 50 mm Hg) |
| CC(C)NCC(O)COc1ccc(-c2nc3c([N+](=O)[O-])cccc3[nH]2)cc1 (centres unmarked) [Compound 17] | ++++ (reduction>50 mm Hg) | 0 (if the frequency modification was comprised between +6 and -6) | 3 (if 6.00≥pD2 ≥5.51) | 2 (if 6.40≥pD2 ≥6.01) | 5.15 -log CI50 (M) | 5.60 -log CI50 (M) | Antihypertensive activity (index) [2, 8]: 89 |
| OC(CNC1CCCCC1)COc1ccc(-c2nc3ccccc3[nH]2)cc1 (centres unmarked) [Compound 18] | +++ (reduction of 30 to 50 mm Hg) | 0 (if the frequency modification was comprised between +6 and -6) | 1 (if 6.80≥pD2 ≥6.41) |  | 5.45 -log CI50 (M) | 5.21 -log CI50 (M) | Antihypertensive activity (index) [2, 8]: 83 |
| COc1ccc2[nH]c(-c3ccc(OCC(O)CNC(C)C)cc3)nc2c1 (centres unmarked) [Compound 19] | +++ (reduction of 30 to 50 mm Hg) | 1 | 4 (if pD2 ≤5.50) |  | 4.99 -log CI50 (M) | 4.70 -log CI50 (M) | Antihypertensive activity (index) [2, 8]: 59 |
| Cc1cc(-c2nc3ccccc3[nH]2)ccc1OCC(O)CNC(C)C (centres unmarked) [Compound 20] | 0 (reduction <10 mm Hg) | 0 (if the frequency modification was comprised between +6 and -6) | 4 (if pD2 ≤5.50) | 1 (if 6.80≥pD2 ≥6.41) |  |  |  |
| OC(CNCCOc1ccc(Cl)cc1)COc1ccc(-c2nc3ccccc3[nH]2)cc1 (centres unmarked) [Compound 21] | 0 (reduction <10 mm Hg) |  |  |  |  |  |  |
| Cc1ccc(OCCNCC(O)COc2ccc(-c3nc4ccccc4[nH]3)cc2)cc1 (centres unmarked) [Compound 22] | 0 (reduction <10 mm Hg) | 0 (if the frequency modification was comprised between +6 and -6) | 2 (if 6.40≥pD2 ≥6.01) |  | 5,65 -log CI50 (M) | 5,35 -log CI50 (M) |  |
| CC(C)NCC(O)COc1ccc(-c2nc3cc([N+](=O)[O-])ccc3[nH]2)cc1 (centres unmarked) [Compound 24, 2-[4-(3-isopropylamino-2-hydroxypropoxy)-phenyl]-5(6)nitrobenzimidazole] |  | 0 (if the frequency modification was comprised between +6 and -6) | 3 (if 6.00≥pD2 ≥5.51) | 2 (if 6.40≥pD2 ≥6.01) | 5,50 -log CI50 (M) | 5,45 -log CI50 (M) |  |
| COc1cc(-c2nc3ccccc3[nH]2)ccc1OCC(O)CNC(C)C (centres unmarked) [Compound 25, 2-[4-(3-isopropylamino-2-hydroxypropoxy)-3-methoxyphenyl]benzimidazole] |  | 0 (if the frequency modification was comprised between +6 and -6) | 3 (if 6.00≥pD2 ≥5.51) | 1 (if 6.80≥pD2 ≥6.41) |  |  |  |
| CC(C)C(=O)NCCNCC(O)COc1ccc(-c2nc3ccccc3[nH]2)cc1 (centres unmarked) [Compound 26, 2-{4-[3-(2-isobutyramidoethyl)amino-2-hydroxypropoxy]phenyl}benzimidazole] |  | 0 (if the frequency modification was comprised between +6 and -6) | 4 (if pD2 ≤5.50) | 3 (if 6.00≥pD2 ≥5.51) |  |  |  |
| O=C(Cc1ccccc1)NCCNCC(O)COc1ccc(-c2nc3ccccc3[nH]2)cc1 (centres unmarked) [Compound 27, 2-{4-[3-(2-phenylacetamidoethyl)amino-2-hydroxypropoxy]phenyl}benzimidazole] |  | 0 (if the frequency modification was comprised between +6 and -6) | 4 (if pD2 ≤5.50) | 3 (if 6.00≥pD2 ≥5.51) |  |  |  |
| C[C@](N)(Cc1ccc(O)c(O)c1)C(=O)O [alpha-methyldopa, reference compound] |  |  |  |  |  |  | Antihypertensive activity (index) ([2]; 100 mg/kg oral): 47; Antihypertensive activity (score) ([2]; 100 mg/kg oral): +++ (reduction of 30 to 50 mm Hg) |
| COC(=O)[C@H]1[C@H]2C[C@@H]3c4[nH]c5cc(OC)ccc5c4CCN3C[C@H]2C[C@@H](OC(=O)c2cc(OC)c(OC)c(OC)c2)[C@@H]1OC [reserpine, reference compound] |  |  |  |  |  |  | Antihypertensive activity (index) ([2]; 3 mg/kg oral): 53; Antihypertensive activity (score) ([2]; 3 mg/kg oral): +++ (reduction of 30 to 50 mm Hg) |
